Results on seven compounds are retold here after patent US7129243B2, “Peptide compounds” (Astellas Pharma Inc., priority 2001, dated 2006).

This test concerns production of nitric oxide in murine macrophage cell line RAW264.7. Description: Assay for inhibitory activity on the production of nitric oxide. To be noted: Mus musculus; test compound 10^−6 M; RAW264.7 cells activated with LPS (1 μg/ml) and INF γ (3 u/ml) for 18–24 hours; NO2^− by Griess reagent. Format: cell-based. The procedure: The murine macrophage cell line RAW264.7 (American Type Culture Collection, No. TIB71) was used in this study. RAW264.7 cells were grown on […] plastic culture flasks at 37° C., 5% in Dulbecco's modified Eagle's medium (DMEM) supplemented with L-glutamine, penicillin, streptomycin and 10% heat-inactivated fetal bovine serum. They were removed from culture flasks by rubber cell scraper and were centrifuged and resuspended in DEM without phenol red. They were plated in 96-well microtiter plates (10^5 cells per well) and allowed to adhere over 2 hours. The test samples were added and the cells were preincubated for 1 hour. Thereafter the cells were activated with both of lipopolysaccharide (LPS) (1 μg/ml) and interferon γ (INF γ) (3 u/ml) for 18-24 hours. An equal volume of Griess reagent (1% sulfanilamide/0.1% N-naphthylethylenediamine dihydrochloride/2.5% H3PO4) was added and the cells were incubated at room temperature for 10 minutes. The absorbance was read at 570 nm using microplate reader and NO2^- was measured using NaNO2 as a standard.
(Griess reagent forms a coloured azo dye with nitrite.)
The term inhibition denotes the drop in the measured response relative to a control, in per cent. A higher inhibition goes with a response far below the control. The compound `CC(C)OC1CCN(C(=O)CNC(=O)[C@H](Cc2ccccn2)NC(=O)/C=C/c2ccc(Cl)cc2)CC1` [Compound (g), (2E)-3-(4-Chlorophenyl)-N-[(1S)-2-{[2-(4-isopropoxy-1-piperidinyl)-2-oxoethyl]amino}-2-oxo-1-(2-pyridylmethyl)ethyl]acrylamide] registered an inhibition at 1 µM of 100%.

Compound `O=C(N[C@@H](Cc1ccccn1)C(=O)NCC(=O)N1CCC(Oc2nccs2)CC1)c1cc2cc(Cl)ccc2o1` [Compound (a), 5-Chloro-N-[(1S)-2-oxo-2-({2-oxo-2-[4-(1,3-thiazol-2-yloxy)-1-piperidinyl]ethyl}amino)-1-(2-pyridylmethyl)ethyl]-1-benzofuran-2-carboxamide] had an inhibition at 1 µM of 100%.

The compound `COc1cccc(OC2CCN(C(=O)CNC(=O)[C@H](Cc3ccccn3)NC(=O)c3cc4cc(Cl)ccc4o3)CC2)n1` [Compound (c), 5-Chloro-N-[(1S)-2-[(2-{4-[(6-methoxy-2-pyridyl)oxy]-1-piperidinyl}-2-oxoethyl)amino]-2-oxo-1-(2-pyridylmethyl)ethyl]-1-benzofuran-2-carboxamide] gave an inhibition at 1 µM of 100%.

Take `O=C(/C=C/c1ccc(Cl)cc1)N[C@@H](Cc1ccccn1)C(=O)NCC(=O)N1CCC(Oc2ccccc2)CC1` [Compound (e), (2E)-3-(4-Chlorophenyl)-N-[(1S)-2-oxo-2-{[2-oxo-2-(4-phenoxy-1-piperidinyl)ethyl]amino}-1-(2-pyridylmethyl)ethyl]-acrylamide]: testing at 1 µM gave an inhibition of 100%.

The compound `O=C(N[C@@H](Cc1ccccn1)C(=O)NCC(=O)N1CCC(Oc2ccccn2)CC1)c1cc2cc(Cl)ccc2o1` [Compound (d), 5-Chloro-N-[(1S)-2-oxo-2-({2-oxo-2-[4-(2-pyridyloxy)-1-piperidinyl]ethyl}amino)-1-(2-pyridylmethyl)ethyl]-1-benzofuran-2-carboxamide] registered an inhibition at 1 µM of 100%.

In turn, `O=C(N[C@@H](Cc1ccccn1)C(=O)NCC(=O)N1CCC(OCC(F)(F)F)CC1)c1cc2cc(Cl)ccc2o1` [Compound (f), 5-Chloro-N-[(1S)-2-oxo-2-({2-oxo-2-[4-(2,2,2-trifluoroethoxy)-1-piperidinyl]ethyl}amino)-1-(2-pyridylmethyl)-ethyl]-1-benzofuran-2-carboxamide] displayed an inhibition at 1 µM of 100%.

In turn, `O=C(/C=C/c1ccc(Cl)cc1)N[C@@H](Cc1ccccn1)C(=O)NCC(=O)N1CCC(Oc2cnccn2)CC1` [Compound (b), (2E)-3-(4-Chlorophenyl)-N-[(1S)-2-oxo-2-({2-oxo-2-[4-(2-pyrazinyloxy)-1-piperidinyl]ethyl}amino)-1-(2-pyridylmethyl)ethyl]acrylamide] had an inhibition at 1 µM of 97.6%.
